Consider 3 compounds from US12239635B2, “Treatment of cognitive disorders using nitazoxanide (NTZ), nitazoxanide (NTZ) analogs, and metabolites thereof” (The Trustees of Columbia University in the City of New York, priority 2018, dated 2025).

The conditions of data set [1]: literature (Stockis et al. and others); cited from earlier work.
Data set [2] is described as follows: in vivo. Particulars: ICR, mouse, po; for AUC(0-inf): AUC0-∞; for AUC(0-t): AUClast. The procedure: (§1) wherein Cmax indicates maximum plasma concentration observed, Tmax indicates time to Cmax, AUClast indicates the Area Under the Curve from zero to the last time point, AUC0-∞ indicates the total area under the plasma concentration time curve from zero to infinity, and T1/2 indicates terminal elimination half-life. […] Brain/Plasma ratio was calculated using the formula: (Brain AUClast)/(Plasma AUClast).

A short description of data set [3]: in vivo. Particulars: Sprague Dawley, rat, po; for AUC(0-inf): AUC0-∞; for AUC(0-t): AUClast. On the procedure: A pharmacokinetic experiment was performed to determine Tizoxanide (TIZ, active metabolite of Nitazoxanide, NTZ) in rat brain and plasma following oral administration to Sprague Dawley (SD) rat.
An Nitazoxanide (NTZ) pill (Alinia) solution was prepared at a concentration of 14.5 mg/mL (10.0 mg/mL as Nitazoxanide (NTZ) for oral administration (per os, PO), ad libitum, in a mixture of 0.5% methyl cellulose and 99.5% saline. The PO dosing volume was 10 mL/kg. SD rats (n=3 per time point; weighing 0.161 to 0.171 kg) were fasted and oral administration was given using a gavage needle. Blood samples were collected from jugular vein and brain tissues were sampled at 0.33, 1 and 4 hrs after oral administration. Blood samples were centrifuged immediately and a 100 ul aliquot of plasma, and the brain tissues were stored −20° C. until the analysis. The concentration of Nitazoxanide (NTZ) and Tizoxanide (TIZ) in plasma and brain were determined by HPLC/MS/MS analysis. An Agilent 1200 HPLC with Zorbax C18 column and an API4000 tandem quadrupole mass spectrometer were used. The molecular ions of Nitazoxanide (NTZ), Tizoxanide (TIZ) and an internal standard (Chlorzoxazone) were fragmented and detected by monitoring the transitions for each compound. Peak areas were integrated using Analyst software version 1.5.1. (Applied Biosystems). The quantifiable range was from 0.001 to 3 μg/ml for plasma and brain samples. Plasma or brain concentration-time profile for each rat was analyzed (WinNonlin 4.1 program) to obtain pharmacokinetic profile parameters.
as §1

The conditions of data set [4]: active metabolite following oral administration of Nitazoxanide; cited from earlier work.

`CC(=O)Oc1ccccc1C(=O)Nc1ncc([N+](=O)[O-])s1` [Nitazoxanide (NTZ), [2-[(5-nitro-1,3-thiazol-2-yl)carbamoyl]phenyl]ethanoate]: the “Pharmacokinetic profile in humans” value in data set [1] is on record as “excellent pharmacokinetic profiles”. Besides, the Tolerability in humans entry in data set [1] is recorded as “well-tolerated”. Further, the Brain/plasma ratio in data set [2] is 0.015; in data set [3], 0.008.
By AUC(0-inf) is commonly meant the area under the concentration-time curve extrapolated to infinity. Higher therefore signals more exposure. For orientation: AUC(0-t) means the area under the concentration-time curve up to a stated or last time point. A lower AUC(0-t) goes with low exposure. The Cmax is the maximum level reached in the sampled fluid or tissue. What is called half-life is how long it takes for the measured level to halve. Low values mean rapid decline, high ones slow decline. By Tmax is commonly meant the time at which the peak concentration occurs. Consider `O=C(Nc1ncc([N+](=O)[O-])s1)c1ccccc1O` [Tizoxanide (TIZ), Tizoxanide], for which the “Pharmacokinetic profile in humans” value in data set [1] is “excellent pharmacokinetic profiles”. Besides, in data set [1], the Tolerability in humans result is “well-tolerated”. Moreover, the figures for the Brain/plasma ratio in data set [2] and in data set [3] were 0.015 and 0.008, respectively. Moreover, the “Cmax, plasma” value in data set [2] stood at 288.50 ± 227.73 ng/mL. The results for the “Tmax, brain” value in data set [2] and in data set [3] were 1.55 ± 2.12 h and 0.53 ± 0.39 h, respectively. The AUC(0-inf) worked out at 9.06 ng·h/mL in data set [2] (brain), 1000 ng·h/mL in data set [2] (plasma), 62.8 ng·h/mL in data set [3] (brain) and 5420 ng·h/mL in data set [3] (plasma). The exposure AUC(0-t) in data set [2] (brain) turned out to be 7.18 ± 5.62 ng·h/mL; in data set [2] (plasma) it was 485 ± 163 ng·h/mL; in data set [3] (brain) it was 17.9 ± 14.6 ng·h/mL; in data set [3] (plasma), 2320 ± 603 ng·h/mL. The compound also had a Cmax in data set [2] (Cmax, plasma) of 228 ng/mL. Further, the half-life in data set [2] (T1/2, brain) is 1.15 h; in data set [2] (T1/2, plasma), 3.8 h; in data set [3] (T1/2, brain), 2.85 h; in data set [3] (T1/2, plasma), 3.86 h. Also, the time of peak concentration (Tmax) in data set [2] (brain) came out at 1.78 h; in data set [2] (plasma), 0.67 h; in data set [3] (brain), 0.55 h; in data set [3] (plasma), 0.39 h. In addition, in data set [4], the Protein bound is 99%.
Turning to `O=C(Nc1ncc([N+](=O)[O-])s1)c1ccccc1O[C@@H]1O[C@H](C(=O)O)[C@@H](O)[C@H](O)[C@H]1O` [Tizoxanide glucuronide (TIZ-G), Tizoxanide glucuronide], in data set [1], the “Pharmacokinetic profile in humans” value is on record as “excellent pharmacokinetic profiles” and the Tolerability in humans result is “well-tolerated”.
